Measurements published in patent US20220395500A1, “SMALL MOLECULE ACTIVATORS OF INTERFERON REGULATORY FACTOR 3 AND METHODS OF USE THEREOF” (Neuralexo, Inc., priority 2020, published 2022).
pEC50: −log10 of the molar value. Where two headings read alike, the source gives them in different places. Each block holds one compound with its values, some of them ahead of it.

Tests used:
J774-Dual cytotoxicity = format: cell-based, mouse; conditions: mouse, J774-Dual cells, read-out: J774 cytotox CC50
Method in brief: (§1)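 CC50 derived from 8-point concentration series in mouse J774-Dual reporter cells, with viability read by CellTiter-Glo in the same plate. Run in parallel with EC50 and ISRE:NFκB ratio determination for cross-species confirmation.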

[1] = system: NF-κB-SEAP reporter in J774-Dual cells; assay: J774-Dual NF-κB-SEAP reporter assay; format: cell-based, mouse; conditions: for pEC50: Mus musculus, read-out: J774 NFkB EC50
Protocol: (§2) First, optimal assay conditions and assay quality in 384-well format were determined. As mentioned, the mouse macrophage J774 cell line (J774-Dual, InvivoGen) stably transfected with the same inducible reporters described above (e.g., IRF-Lucia luciferase and NF-κB-SEAP) was used. The responsiveness of the J774-Dual cell line was investigated in an array of assay conditions to obtain sensitive and reproducible results for the activation of the IRF and NF-κB reporters. An optimal plating density and conditions for these cells was established for these cells in a 384-well format. Assay work-flow is similar to that discussed above for the THP1-Dual assay without a need for cell differentiation. Thus, cells are seeded directly in growth medium and incubated at 37° C. in a 5% C02 incubator for 24 hours prior to the programmed treatments being added as described herein.
(§3) The primary high throughput screen used the HTS platform of human THP1 monocyte cells containing the IRF-Lucia luciferase and NFκB-SEAP (secreted embryonic alkaline phosphatase) dual reporter (THP1-Dual, Invivogen), enabling the simultaneous study of the IRF and NFκB signaling pathways respectively. As discussed, the Lucia luciferase reporter gene is under the control of an ISG54 (interferon-stimulated gene) minimal promoter in conjunction with five interferon-stimulated response elements (ISRE). The SEAP gene is driven by an IFNβ minimal promoter fused to five copies of the NFκB consensus transcriptional response element and three copies of the c-Rel binding site. Both IRF-Lucia luciferase and NFκB-SEAP reporter proteins are secreted and readily measurable in the cell culture supernatant when using QUANTI-Luc™ and QUANTI-Blue™ detection reagents, respectively. Identified “hits” were confirmed in a secondary screen with an 8-point dose response curve. Hits were further screened for activity in the mouse using the mouse J774 macrophage-like cell line containing the identical reporter constructs (J774-Dual, Invivogen).
(§4) The OTRADI Small Molecule Library of approximately 246,000 diverse compounds (see below for description) was screened using the THP1-Dual based HTS platform described above. All transfer steps in the screen are fully automated, thus reducing variability. Primary screening included a single data point or dose for each molecule. After data normalization was applied for each assay run, “hit” selection was performed on the plates that pass the quality control (QC) criterion. Hits were defined as samples having values above the activity cutoff determined based on noise level of the assay to reduce false positive rates. In the pilot study discussed above this activity value was >3σ above the ISRE mean with the added criteria of NFκB activation being lower than […] from the mean to identify IRF selective compounds. The ratio of ISRE:NFκB activity was also calculated as a selectivity index for prioritizing hit selection. Primary hits underwent secondary screening to determine the 50% effective concentration (EC50) and 50% cytotoxic concentration (CC50) of these agents using an 8-point dose-response curve in the human THP1-Dual cells. Cytotoxicity was measured in the plate using Cell Titer Glo (Promega). Identified candidate compounds were further screened (orthogonal screen) for cross species activity in the validated mouse J774-Dual assay using an 8-point dose-response format to determine EC50 and CC50 values as well as ISRE:NFκB ratios. A general process flow for the experimental design laid out above is depicted at FIG. 12.

[2] = system: NF-κB-SEAP reporter in THP1-Dual cells; assay: THP1-Dual NF-κB-SEAP reporter counterscreen; format: cell-based, human; conditions: Homo sapiens, THP1-Dual, read-out: THP1 NFkB EC50
Protocol: THP1 Dual (InvivoGen) cell suspensions were cultured in RPMI 1640 (Hyclone, Logan, Utah) supplemented with 10% fetal bovine serum (Hyclone), 100 U/mL Normocin (Invivogen), and 50 U/mL PenStrep (Gibco, Dublin, Ireland) between a density of 7·10^5-2·10^6 cells/mL. Every other passage, media was supplemented with 5 U/mL Blasticidin and 100 U/mL Zeocin to maintain the expression constructs. White, flat-bottom 384-well plates (Greiner, Kremsmunster, Austria, 781080) were seeded with 2.5·10^4 cells/well in a total of 50 μL media containing 5 ng/mL phorbolmyristic acid (PMA) using a Matrix WellMate (Thermo Scientific) dispenser. After 48 hours of incubation at 37° C., media was removed using a BioTek ELx405 CW plate washer set to aspirate and wash each well three times with 65 μL 1×PBS. Plates were reloaded with 50 μL media without PMA and treatments added. Lipopolysaccharide in dimethylsulfoxide (DMSO) was transferred to control wells using a HP D300 microdispenser to a final concentration of 313 ng/mL. Compounds from chemical library plates were copied using a Sciclone (Caliper LifeSciences) mounted with a 384-pin transfer tool to obtain a final concentration of 10 μM. After incubation with treatments for 24 hours, 10 μL of supernatant media from each well was transferred into a white, flat-bottom 384-well plate for luminescence readout and a black-walled, clear flat-bottom 384-well plate for absorbance readout.
Specifically, to enable screening of novel chemical entities (NCEs) in a larger screening effort, a robust high-throughput cell-based assay system for primary hit identification of ISRE activators based on the above-mentioned target validation was desired. Human ISRE activity was verified using a THP-1 monocyte line containing the NF-κB-SEAP and IRF-Lucia luciferase dual reporter (THP1-Dual; Invivogen) that features two reporter genes, SEAP (secreted embryonic alkaline phosphatase) and Lucia luciferase, thereby enabling the simultaneous study of the NF-κB and IRF signalling pathways. The Lucia luciferase reporter is under the control of an ISG54 (interferon-stimulated gene) minimal promoter in conjunction with five IFN-stimulated response elements. The SEAP gene is driven by an IFN-β minimal promoter fused to five copies of the NF-κB consensus transcriptional response element and three copies of the c-Rel binding site. Both reporter proteins are readily measurable in the cell culture supernatant when using QUANTI-LUC™ and QUANTI-Blue SEAP detection reagents.
Using the experimental design and data analysis outlined above, optimized assay conditions were obtained. The responsiveness of the human THP-1 Dual cell line was evaluated in an array of assay conditions to obtain sensitive and reproducible results for the activation of IRF and NF-κB reporters. An optimal plating density and differentiation protocol for these cells was established in a 384-well format. All transfer steps are fully automated using high throughput robotic equipment. Briefly, cells are seeded in differentiation medium using a Matrix WellMate fitted with the WellMate Stacker (Thermo Scientific) and incubated at 37° C. with 5% CO2 for 48 h. Following differentiation, cells are washed using a BioTek ELx405 Select CW plate washer and growth medium added with the Matrix WellMate. Programmed control treatments are added to wells using a D300 digital dispenser fitted with T8+ dispense heads (Hewlett Packard) designed to dispense nanoliter quantities of material. Compounds from library plates are added using a pin tool fitted to a Sciclone ALH 3000 Workstation (Caliper Life Sciences) programmed with Maestro v4.4. After treatment, plates are returned to incubators for 24 hours. To measure reporter expression, supernatant is collected using the Sciclone and dispensed into 2 plates: 1) a white 384-well assay plate for Lucia luminescence measurements and 2) a clear-bottom black 384-well assay plate for SEAP absorbance measurements. […]

[3] = THP1-Dual cytotoxicity (Cell Titer Glo, ATP); format: cell-based, human; conditions: human, THP1-Dual cells, read-out: Thp1 cytotox CC50
Method in brief: (§5)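 CC50, the concentration killing half the cells, was derived from ATP-dependent CellTiter-Glo luminescence. Cells were THP1-Dual (human) and compound was tested as an 8-point dose-response series, with viability read in the same plate.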

J774-Dual cells = assay: J774-Dual cytotoxicity; format: cell-based, mouse; conditions: Mouse Reporter Cell Line; read-out: J774 cytotox CC50
Method in brief: as §1

THP1-Dual cells = assay: THP1-Dual cytotoxicity (Cell Titer Glo, ATP); format: cell-based, human; conditions: Human Reporter Cell Line; read-out: Thp1 cytotox CC50
Method in brief: as §5

[4] = system: IRF-Lucia luciferase reporter (ISRE) in THP1-Dual cells; assay: THP1-Dual IRF-Lucia luciferase reporter assay (ISRE activation); format: cell-based, human; conditions: for pEC50: Homo sapiens, THP1-Dual, read-out: THP1 IRF EC50
Method in brief: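 Supernatant luminescence from the ISG54/ISRE-driven Lucia reporter was measured after 24 h exposure to 10 μM compound (LPS 313 ng/mL in control wells).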

[5] = system: IRF-Lucia luciferase reporter (ISRE) in J774-Dual cells; assay: J774-Dual IRF-Lucia luciferase reporter assay (ISRE activation); format: cell-based, mouse; conditions: for pEC50: Mus musculus, read-out: J774 IRF EC50
Protocol: as §2, §3, §4

[6] = J774, Mouse Reporter Cell Line, 8-point dose response
[7] = Human Reporter Cell Line, 8-point dose response
[8] = J774, Mouse Reporter Cell Line J774

SMILES: CCCCOc1nc(N)c2c(n1)N(Cc1cccc(CN3CCCC3)c1)CC(=O)N2 [NA-63]
CC50 (J774-Dual cytotoxicity; Mouse Reporter Cell Line): 73.9 µM
pEC50 [1, 6]: 5.56
pEC50 [2, 7]: 5.53

SMILES: O=C(Nc1ccc(N2CCN(C(=O)c3ccccc3Cl)CC2)cc1)c1ccc(OCc2ccccc2)cc1 [NA-49]
CC50 (J774-Dual cells): > 25 µM
CC50 (THP1-Dual cells): 27.9 µM

SMILES: O=C(Nc1ccc(N2CCN(C(=O)c3ccccc3Cl)CC2)cc1)c1ccc(OCc2ccccc2)cc1 [NA-50]
CC50 (J774-Dual cytotoxicity; Mouse Reporter Cell Line): > 25 µM
CC50 (THP1-Dual cells): 13.1 µM
pEC50 [4, 7]: ~5.60

SMILES: O=C(Nc1ccc(N2CCN(C(=O)c3cccs3)CC2)cc1)c1ccc(OCc2ccccc2)cn1 [NA-60]
CC50 ([3]; Human Reporter Cell Line): 23 µM
J774 IRF % activation at peak ([5]; Mouse Reporter Cell Line): 33.91%
pEC50 [5, 6]: 5.75
pEC50 [2, 7]: 5.64
pEC50 [4, 7]: 5.65

SMILES: COc1cccc2c1C(=O)c1c(O)c3c(c(O)c1C2=O)C[C@@](O)(C(C)=O)C[C@@H]3O[C@H]1C[C@H](N)[C@H](O)[C@H](C)O1 [OTR-0000353-001 (Daunorubicin), Daunorubicin, reference compound]
Average ISRE/NFκB (Range) ([5]; mouse J774-Dual pilot screen, 3 screens): 0.1 (0.09-0.18)
Average ISRE % Activation ([5]; mouse J774-Dual pilot screen, percent of LPS activation signal +/− SD, 3 screens): 5.4 +/− 1.6%
ISRE activation in both THP1-Dual and J774-Dual screens ([5]; pilot screens): cross-species ISRE activity
NF-κB activation in J774 screen ([1]; J774-Dual pilot screen): high NF-κB activity
Average ISRE/NFκB (Range) ([4]; human THP1 pilot screen, 10 μM, 3 screens): 0.7 (0.2-1.0)
Average ISRE % Activation ([4]; human THP1 pilot screen, 10 μM, 24 hours, percent of LPS activation signal +/− SD, 3 screens): 4.0 +/− 1.8%

SMILES: COc1ccc(C(=O)Nc2ccc(N3CCN(C(=O)c4cccs4)CC3)cc2)c2ccccc12 [NA-15]
CC50 (J774-Dual cytotoxicity; Mouse Reporter Cell Line): > 25 µM
CC50 ([3]; Human Reporter Cell Line): > 25 µM
pEC50 [1, 6]: 5.79
pEC50 [4, 7]: 5.23

Second part, led by results:

pEC50 [1, 8]: 6.14
SMILES: CCCN(CCC)C(=O)C1=Cc2ccc(-c3ccc(C(=O)N4CCCC4)cc3)cc2N=C(N)C1 [ND-88]
CC50 (J774-Dual cytotoxicity; Mouse Reporter Cell Line J774): > 25 µM
CC50 ([3]; Human Reporter Cell Line THP1): > 25 µM
pEC50 ([2]; Human Reporter Cell Line THP1): 5.77

pEC50 [1, 8]: 5.04
SMILES: Cc1ccc(C(=O)Nc2cc(-c3nc4cc(C(C)C)ccc4o3)ccc2C)cc1C [ND-103]
pEC50 ([2]; Human Reporter Cell Line THP1): 4.60

pEC50 [1, 8]: 4.95
pEC50 ([4]; Human Reporter Cell Line THP1): 5.16
SMILES: COc1ccc(NC(=O)c2cc(NC(=O)c3cccs3)ccc2N2CCOCC2)cc1 [NB-14]
CC50 (J774-Dual cytotoxicity; Mouse Reporter Cell Line J774): > 25 µM
CC50 ([3]; Human Reporter Cell Line THP1): > 25 µM

pEC50 [5, 8]: ~4.54
SMILES: COc1ccc(C(=O)Nc2cc(-c3nc4ccccc4s3)ccc2C)cc1OC [ND-66]
CC50 (J774-Dual cytotoxicity; Mouse Reporter Cell Line J774): > 25 µM
CC50 ([3]; Human Reporter Cell Line THP1): 17.9 µM
J774 IRF % activation at peak ([5]; Mouse Reporter Cell Line J774, at peak): ~32.86%
pEC50 ([2]; Human Reporter Cell Line THP1): ~6.18
